Assay results: patent publication US8563730B2, “Pyrazole and fused pyrazole glucokinase activators” (Takeda San Diego, Inc., priority 2008, dated 2013)
Read-outs that look alike come from different tables or passages of the source.

Target: T1, GK (glucokinase, residues 12-465) (Homo sapiens, UniProt P35557)
T1 construct: I.D. No. 1 corresponds to residues 12-465 of glucokinase; made in house; host or cells: DH10b-T1r E. coli
T1 sequence (P35557 with tags, fused parts or gaps isoform P35557-2): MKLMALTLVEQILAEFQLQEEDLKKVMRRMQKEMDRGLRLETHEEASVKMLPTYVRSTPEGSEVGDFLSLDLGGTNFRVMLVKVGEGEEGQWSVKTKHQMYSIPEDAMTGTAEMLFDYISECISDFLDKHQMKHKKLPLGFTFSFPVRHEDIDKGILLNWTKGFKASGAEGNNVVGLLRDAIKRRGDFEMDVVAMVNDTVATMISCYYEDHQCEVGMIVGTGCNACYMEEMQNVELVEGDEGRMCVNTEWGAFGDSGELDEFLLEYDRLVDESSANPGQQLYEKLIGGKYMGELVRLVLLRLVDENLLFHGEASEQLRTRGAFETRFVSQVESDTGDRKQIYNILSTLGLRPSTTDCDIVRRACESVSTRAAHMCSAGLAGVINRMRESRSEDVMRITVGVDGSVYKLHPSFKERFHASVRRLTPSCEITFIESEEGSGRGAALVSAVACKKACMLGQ
Test: enzymatic glucokinase activity assay (ATP consumption, KinaseGlo luminescence)
Assay type: biochemical
Conditions: 5 μM ATP, 5 mM Glucose, reported as bins; for EC50: read-out: pKact
In short: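 E. coli-expressed recombinant GK purified by two anion-exchange steps. Reaction in 25 mM Hepes pH 7.2, 10 mM MgCl2, 1 mM DTT, 5 μM ATP, 5 mM glucose, 2% DMSO, 60 min at room temperature. ATP consumption quantified by KinaseGlo luminescence; pKact and % ACTmax derived by non-linear curve fitting.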

[1] = Kact = concentration that displays 50% of the maximal increase in GK activity, 60 min, room temperature
[2] = calculated maximal gain in GK enzyme activity at a saturating concentration of the compound, read-out: % ACTmax

EC50 [1] [nM] | Emax [2] [%] | SMILES | pKact [1] | % ACTmax (calculated maximal gain in GK enzyme activity at a saturating concentration of the compound) | Emax (read-out: % ACTmax, calculated maximal gain in GK enzyme activity at a saturating concentration of the compound) [%]
3980 to 12600 | ≥ 111 | O=C(Nc1ncc(Cl)s1)[C@@H](CC1CCOCC1)n1ncc2cc(S(=O)(=O)C3CC3)ccc21 [Compound 47, (R)-N-(5-chlorothiazol-2-yl)-2-(5-(cyclopropylsulfonyl)-1H-indazol-1-yl)-3-(tetrahydro-2H-pyran-4-yl)propanamide] | – | – | –
≤ 316 | 106 to 110 | O=C(Nc1cnccn1)C(CC1CCOCC1)n1ncc2c(S(=O)(=O)C3CC3)c(F)ccc21 (stereo not shown) [Compound 154, 2-(4-(cyclopropylsulfonyl)-5-fluoro-1H-indazol-1-yl)-N-(pyrazin-2-yl)-3-(tetrahydro-2H-pyran-4-yl)propanamide] | – | – | –
≤ 316 | ≥ 111 | O=C(Nc1ncc(F)s1)[C@H](CC1CCOCC1)n1ncc2c(S(=O)(=O)C3CC3)cc(F)cc21 [Compound 123, (S)-2-(4-(cyclopropylsulfonyl)-6-fluoro-1H-indazol-1-yl)-N-(5-fluorothiazol-2-yl)-3-(tetrahydro-2H-pyran-4-yl)propanamide] | – | – | –
≥ 15800 | ≤ 90 | COc1ccc2nc(NC(=O)C(CC3CCOCC3)n3cc(S(=O)(=O)C4CC4)cn3)sc2n1 (stereo not shown) [Compound 24, 2-(4-(cyclopropylsulfonyl)-1H-pyrazol-1-yl)-N-(5-methoxythiazolo[5,4-b]pyridin-2-yl)-3-(tetrahydro-2H-pyran-4-yl)propanamide] | – | – | –
3980 to 12600 | ≥ 111 | Cc1cc(S(=O)(=O)C2CC2)c2cnn(C(CC3CCOCC3)C(=O)Nc3ncc(F)s3)c2c1 (stereo not shown) [Compound 122, 2-(4-(cyclopropylsulfonyl)-6-methyl-1H-indazol-1-yl)-N-(5-fluorothiazol-2-yl)-3-(tetrahydro-2H-pyran-4-yl)propanamide] | – | – | –
≤ 316 | 101 to 105 | Nc1cc(S(=O)(=O)C2CC2)c2cnn(C(CC3CCOCC3)C(=O)Nc3ncc(F)s3)c2c1 (stereo not shown) [Compound 142, 2-(6-amino-4-(cyclopropylsulfonyl)-1H-indazol-1-yl)-N-(5-fluorothiazol-2-yl)-3-(tetrahydro-2H-pyran-4-yl)propanamide] | – | – | –
≤ 316 | 90 to 100 | COc1ccc2c(cnn2[C@@H](CC2CCOCC2)C(=O)Nc2cnccn2)c1S(=O)(=O)C1CC1 [Compound 94, (S)-2-(4-(cyclopropylsulfonyl)-5-methoxy-1H-indazol-1-yl)-N-(pyrazin-2-yl)-3-(tetrahydro-2H-pyran-4-yl)propanamide] | – | – | –
3980 to 12600 | ≥ 111 | O=C(Nc1ncc(F)s1)C(CC1CCOCC1)n1cc(S(=O)(=O)C2CC2)cn1 (stereo not shown) [Compound 28, 2-(4-(cyclopropylsulfonyl)-1H-pyrazol-1-yl)-N-(5-fluorothiazol-2-yl)-3-(tetrahydro-2H-pyran-4-yl)propanamide] | – | – | –

Continued, molecule first:

SMILES | EC50 [1] [nM] | Emax [2] [%] | pKact [1] | % ACTmax (calculated maximal gain in GK enzyme activity at a saturating concentration of the compound) | Emax (read-out: % ACTmax, calculated maximal gain in GK enzyme activity at a saturating concentration of the compound) [%]
O=C(Nc1ncc(F)s1)[C@@H](CC1CCOCC1)n1cc(S(=O)(=O)C2CCCC2)cn1 (single isomer, unassigned) [Compound 37, 2-(4-(cyclopentylsulfonyl)-1H-pyrazol-1-yl)-N-(5-fluorothiazol-2-yl)-3-(tetrahydro-2H-pyran-4-yl)propanamide] | 1580 to 3160 | ≥ 111 | – | – | –
O=C1CC[C@H](C[C@@H](C(=O)Nc2ncc(F)s2)n2cc(S(=O)(=O)C3CC3)cn2)C1 [Compound 54, (S)-2-(4-(cyclopropylsulfonyl)-1H-pyrazol-1-yl)-N-(5-fluorothiazol-2-yl)-3-((R)-3-oxocyclopentyl)propanamide] | 3980 to 12600 | ≤ 90 | – | – | –
COc1ccc2c(cnn2C(CC2CCOCC2)C(=O)Nc2cnccn2)c1S(=O)(=O)C1CC1 (stereo not shown) [Compound 91, 2-(4-(cyclopropylsulfonyl)-5-methoxy-1H-indazol-1-yl)-N-(pyrazin-2-yl)-3-(tetrahydro-2H-pyran-4-yl)propanamide] | 398 to 1260 | 101 to 105 | – | – | –
O=C(Nc1cnccn1)[C@@H](CC1CCOCC1)n1ncc2c(S(=O)(=O)C3CC3)cccc21 [Compound 90, (R)-2-(4-(cyclopropylsulfonyl)-1H-indazol-1-yl)-N-(pyrazin-2-yl)-3-(tetrahydro-2H-pyran-4-yl)propanamide] | ≥ 15800 | 90 to 100 | – | – | –
O=C(Nc1ncc(F)s1)C(CC1CCOCC1)n1ncc2c(S(=O)(=O)C3CC3)ccc(Cl)c21 (stereo not shown) [Compound 23, 2-(7-chloro-4-(cyclopropylsulfonyl)-1H-indazol-1-yl)-N-(5-flourothiazol-2-yl)-3-(tetrahydro-2H-pyran-4-yl)propanamide] | – | – | ≧6.5 | ≧111% | –
COC(=O)c1cnc(NC(=O)C(CC2CCCC2)n2cc(S(=O)(=O)C3CC3)cn2)s1 (stereo not shown) [Compound 6, Methyl 2-(3-cyclopentyl-2-(4-(cyclopropylsulfonyl)-1H-pyrazol-1-yl)propanamido)thiazole-5-carboxylate] | 3980 to 12600 | ≥ 111 | – | – | –
O=C(Nc1cnccn1)C(CC1CCOCC1)n1ncc2c(S(=O)(=O)C3CC3)cccc21 (stereo not shown) [Compound 65, 2-(4-(cyclopropylsulfonyl)-1H-indazol-1-yl)-N-(pyrazin-2-yl)-3-(tetrahydro-2H-pyran-4-yl)propanamide] | 398 to 1260 | 90 to 100 | – | – | –
O=C(Nc1cnccn1)[C@H](CC1CCOCC1)n1ncc2c(S(=O)(=O)C3CC3)ccnc21 [Compound 162, (S)-2-(4-(cyclopropylsulfonyl)-1H-pyrazolo[3,4-b]pyridin-1-yl)-N-(pyrazin-2-yl)-3-(tetrahydro-2H-pyran-4-yl)propanamide] | 1580 to 3160 | 106 to 110 | – | – | –
NC(=O)c1ccc(NC(=O)C(CC2CCOCC2)n2ncc3c(S(=O)(=O)C4CC4)cc(F)cc32)nc1 (stereo not shown) [Compound 117, 6-(2-(4-(cycloproypylsulfonyl)-6-fluoro-1H-indazol-1-yl)-3-(tetrahydro-2H-pyran-4-yl)propanamido)nicotinamide] | ≤ 316 | 106 to 110 | – | – | –
Cc1nn(C(CC2CCOCC2)C(=O)Nc2ncc(F)s2)c(C)c1S(=O)(=O)C1CC1 (stereo not shown) [Compound 27, 2-(4-(cyclopropylsulfonyl)-3,5-dimethyl-1H-pyrazol-1-yl)-N-(5-fluorothiazol-2-yl)-3-(tetrahydro-2H-pyran-4-yl)propanamide] | 1580 to 3160 | ≤ 90 | – | – | –
O=C(Nc1ncc(Cl)s1)C(CC1CCCC1)n1cc(S(=O)(=O)C2CC2)cn1 (stereo not shown) [Compound 33, N-(5-chlorothiazol-2-yl)-3-cyclopentyl-2-(4-(cyclopropylsulfonyl)-1H-pyrazol-1-yl)propanamide] | 1580 to 3160 | ≥ 111 | – | – | –
Cn1ccc(NC(=O)[C@@H](CC2CCOCC2)n2ncc3c(S(=O)(=O)C4CC4)cncc32)n1 [Compound 160, (R)-2-(4-(cyclopropylsulfonyl)-1H-pyrazolo[3,4-c]pyridin-1-yl)-N-(1-methyl-1H-pyrazol-3-yl)-3-(tetrahydro-2H-pyran-4-yl)propanamide] | 3980 to 12600 | 90 to 100 | – | – | –
O=C(Nc1cnccn1)C(CC1CCCC1)n1ncc2c(S(=O)(=O)C3CC3)cccc21 (stereo not shown) [Compound 61, 3-cyclopentyl-2-(4-(cyclopropylsulfonyl)-1H-indazol-1-yl)-N-(pyrazin-2-yl)propanamide] | 398 to 1260 | 90 to 100 | – | – | –
N#Cc1cc(S(=O)(=O)C2CC2)c2cnn(C(CC3CCOCC3)C(=O)Nc3cnccn3)c2c1 (stereo not shown) [Compound 100, 2-(6-cyano-4-(cyclopropylsulfonyl)-1H-indazol-1-yl)-N-(pyrazin-2-yl)-3-(tetrahydro-2H-pyran-4-yl)propanamide] | 398 to 1260 | ≤ 90 | – | – | –
N#Cc1ccc(NC(=O)C(CC2CCOCC2)n2ncc3c(S(=O)(=O)C4CC4)cccc32)nc1 (stereo not shown) [Compound 135, N-(5-cyanopyridin-2-yl)-2-(4-(cyclopropylsulfonyl)-1H-indazol-1-yl)-3-(tetrahydro-2H-pyran-4-yl)propanamide] | 398 to 1260 | 106 to 110 | – | – | –
Cc1ccc2c(cnn2C(CC2CCOCC2)C(=O)Nc2ccn(C)n2)c1S(=O)(=O)C1CC1 (stereo not shown) [Compound 158, 2-(4-(cyclopropylsulfonyl)-5-methyl-1H-indazol-1-yl)-N-(1-methyl-1H-pyrazol-3-yl)-3-(tetrahydro-2H-pyran-4-yl)propanamide] | 398 to 1260 | ≥ 111 | – | – | –
Cn1ccc(NC(=O)[C@H](CC2CCOCC2)n2ncc3c(S(=O)(=O)C4CC4)ccnc32)n1 [Compound 98, (S)-2-(4-(cyclopropylsulfonyl)-1H-pyrazolo[3,4-b]pyridin-1-yl)-N-(1-methyl-1H-pyrazol-3-yl)-3-(tetrahydro-2H-pyran-4-yl)propanamide] | 398 to 1260 | 90 to 100 | – | – | –
O=C(Nc1ncc(Cl)s1)C(CC1CCOCC1)n1cc(S(=O)(=O)C2CCCC2)cn1 (stereo not shown) [Compound 5, N-(5-chlorothiazol-2-yl)-2-(4-(cyclopentylsulfonyl)-1H-pyrazol-1-yl)-3-(tetrahydro-2H-pyran-4-yl)propanamide] | 398 to 1260 | – | – | – | ≥ 111
